Patent publication US9814787B2, “Luciferin amides” (University of Massachusetts, priority 2013, dated 2017)
Entries after “also recorded” stand apart in the source; their conditions may differ.

What was measured:
FAAH = molecular target: T1, FAAH (Homo sapiens, UniProt O00519); test: In vitro FAAH assay: luciferin amide treated with recombinant FAAH, then R218K luciferase, bioluminescence; type: biochemical; details: 50 μM luciferin amide, 10 minutes at room temperature, R218K luciferase 3 μg/mL
T1 construct: purchased Cayman Chemical
T1 sequence (O00519 1-579): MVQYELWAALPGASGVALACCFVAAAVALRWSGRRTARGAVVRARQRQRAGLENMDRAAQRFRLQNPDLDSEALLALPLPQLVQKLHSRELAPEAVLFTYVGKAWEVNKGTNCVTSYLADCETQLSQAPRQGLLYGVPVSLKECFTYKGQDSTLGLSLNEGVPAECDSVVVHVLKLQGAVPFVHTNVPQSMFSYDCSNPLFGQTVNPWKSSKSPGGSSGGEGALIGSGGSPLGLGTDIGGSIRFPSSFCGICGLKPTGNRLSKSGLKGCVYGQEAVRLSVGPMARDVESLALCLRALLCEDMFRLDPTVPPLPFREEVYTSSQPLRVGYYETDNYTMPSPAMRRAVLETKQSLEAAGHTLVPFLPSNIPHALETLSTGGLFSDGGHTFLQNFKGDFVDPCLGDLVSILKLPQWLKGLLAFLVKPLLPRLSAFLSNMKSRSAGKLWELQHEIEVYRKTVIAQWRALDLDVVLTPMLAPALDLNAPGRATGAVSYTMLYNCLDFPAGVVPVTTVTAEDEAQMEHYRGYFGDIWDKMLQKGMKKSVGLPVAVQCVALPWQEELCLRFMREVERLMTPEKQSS
Method: Recombinant FAAH, FAAH assay buffer, and FAAH inhibitors URB-597, PF-750, and PF-3845 were purchased from Cayman Chemical.
Bioluminescence assays were performed in either a Turner Veritas luminometer or a Xenogen IVIS-100 imaging system. For Veritas experiments, white 96-well plates were used (Costar 3912). For IVIS experiments, black 96-well plates were used (Costar 3915).
Luciferin amides (50 μM) were treated with FAAH and FAAH buffer (Cayman Chemical) in the presence or absence of 50 μM FAAH inhibitor URB-597 or 50 μM luciferase inhibitor 2-(4′-methoxyphenyl)benzothiazole. After 10 minutes at room temperature, R218K mutant firefly luciferase was added at a concentration of 3 μg/mL and bioluminescence was detected on a Turner Veritas luminometer.
Four luciferin amides (50 μM), i.e., Compounds 1, 9, 10, and 25, were treated with a buffer alone, a buffer containing FAAH, a buffer containing FAAH+50 μM URB-597 (i.e., a FAAH inhibitor), or a buffer containing FAAH+50 μM luciferase inhibitor 2-(4′-methoxyphenyl)benzothiazole. After 10 minutes at room temperature, R218K luciferase was added at a concentration of 3 μg/mL and bioluminescence was detected on a Turner Veritas.
Three luciferin amides (50 μM), i.e., Compounds 2, 9, and 25, were treated with a buffer alone, a buffer containing FAAH, a buffer containing FAAH 1:10 (i.e., a ten-fold dilution of FAAH), a buffer containing pig liver esterase (PLE), or a buffer containing PLE 1:10 (i.e., a ten-fold dilution of PLE). After one hour at room temperature, R218K luciferase was added at a concentration of 3 μg/mL and bioluminescence was detected on a Turner Veritas.

[1] = test system: live CHO cells expressing R218K luciferase; test: Intact cell FAAH assay, light emission from live CHO cells expressing R218K luciferase; type: cell-based, Chinese hamster
Method: (§1) Chinese hamster ovary-K1 (CHO-K1) cells were grown in a CO2 incubator at 37° C. with 5% CO2 and were cultured in F-12K Nutrient Mixture (GIBCO) supplemented with 10% fetal bovine serum and 100 U/mL penicillin/streptomycin.
(§2) Wild-type and R218K mutant luciferases were cloned into the BamHI-NotI site of pCDNA 3.1 and transiently transfected into CHO-K1 cells with Lipofectamine 2000 in 96-well tissue culture-treated plates for intact cell assays, or 6-well plates for lysed cell assays. For intact cells, 0.075 μg plasmid/well was transfected; for lysed cells, 2.25 μg plasmid/well was transfected.
[…] The cells were incubated for one hour in the CO2 incubator at 37° C. Cells were then washed with Hank's balanced salt solution (HBSS) and overlaid with 60 μL a luciferin amide substrate in HBSS. Imaging assays were performed 3 minutes after substrate addition, with final substrate concentrations ranging from 0.122 to 250 μM.
Seven luciferin amides, i.e., Compounds 1-4, 9, 10, and 25, were tested in live CHO cells expressing R218K luciferase at various concentrations (i.e., 0.12 μM, 0.25 μM, 0.5 μM, 1 μM, 2 μM, 4 μM, 8 μM, 16 μM, 31 μM, 62 μM, 125 μM, and 250 μM).
(§3) Compound 25 and Compound 10, as well as their corresponding luciferins (i.e., D-Luciferin and CycLuc2, respectively), were tested in live CHO cells expressing wild-type (WT) luciferase or R218K (RK) luciferase at various concentrations (i.e., 0.125 μM, 0.25 μM, 0.5 μM, 1 μM, 2 μM, 4 μM, 8 μM, 16 μM, 31 μM, 62 μM, 125 μM, and 250 μM).

[2] = test system: FVB mice expressing luciferase in brain tissue; test: In vivo bioluminescence imaging in brains of FVB mice injected with AAV9-luc+ in the striatum; details: doses 200-fold and 1000-fold lower than standard D-luciferin dose
Method: FVB mice were injected with AAV9-luc+ in the brain striatum. Bioluminescence assays were performed approximately nine months after AAV injection. Each luciferin amide was diluted into PBS to the indicated concentration from a 50 mM DMSO stock solution and filtered (0.22 μm) prior to intraperitoneally injection (0.1 mL per mouse). Mice were anesthetized with isoflurane (2% in 1 L/min oxygen) and images acquired on a Xenogen IVIS 100 imaging system and analyzed with Living Image software.
Certain luciferin amides described herein were tested to determine whether they would image well in live mice. For these studies, FVB mice were injected with adeno-associated virus 9 (AAV9)-luciferase constructs into the brain striatum.
Bioluminescence imaging (BLI) in the brain is more challenging than imaging in the rest of the organism, in part because a luciferase substrate (i.e., a luciferin) must cross the blood-brain barrier. Therefore, the ability of a synthetic luciferin (i.e., Compound 9's corresponding luciferin (CycLuc1)) to allow bioluminescence imaging in these mice, as compared to the native firefly luciferase substrate (i.e., D-luciferin) was first tested. Specifically, each substrate was injected intraperitoneally (IP) in PBS at a volume of 0.1 mL, D-luciferin being at a concentration of 100 mM and CycLuc1 being at a concentration of 5 mM. […] CycLuc1 was then injected at a 320-fold lower dose (0.06 mL of 0.5 mM) than D-luciferin.
Specifically, Compound 9 (i.e., CycLuc1 amide) was injected at 0.5 mM in 0.5% DMSO/PBS (0.06 mL).
In this figure, mice in the top row were treated with luciferin amides in the amounts indicated in the figure, and the mice in the bottom row were the same mice that were imaged one day later using a standard dose of D-luciferin.

[3] = test system: live CHO cells expressing wild-type (WT) luciferase; test: Intact cell FAAH assay, light emission from live CHO cells expressing wild-type luciferase; type: cell-based, Chinese hamster; details: all concentration levels
Method: as §1, §2
Medium was removed from transfected CHO cells and replaced with 60 μL Optimem with or without a FAAH inhibitor (10 μM). The cells were incubated for one hour in the CO2 incubator at 37° C. Cells were then washed with Hank's balanced salt solution (HBSS) and overlaid with 60 μL a luciferin amide substrate in HBSS. Imaging assays were performed 3 minutes after substrate addition, with final substrate concentrations ranging from 0.122 to 250 μM.
as §3

CN1CCc2cc3nc(C4=N[C@@H](C(N)=O)CS4)sc3cc21 [Compound 10, (S)-4,5-dihydro-2-(6,7-dihydro-5-methyl-5H-thiazolo[4,5-f]indol-2-yl)thiazole-4-carboxamide]
increase in bioluminescence signal on addition of FAAH versus buffer (FAAH): 139 fold | effect of FAAH inhibitors URB-597, PF-750 and PF-3845 on light output ([1]; 50 μM FAAH inhibitor): complete inhibition | light emission relative to the corresponding luciferin (CycLuc2) ([1]; all concentrations tested, 0.12 to 250 μM): greater light emission than its corresponding luciferin; also recorded: greater light output than cells treated with Compound 10's corresponding luciferin | light output relative to other substrate-luciferase combinations ([1]; concentrations above 30 μM): only exceeded by cells expressing the wild-type luciferase and treated with D-luciferin | light emission relative to other substrate-luciferase combinations ([1]; substrate concentrations below 30 μM): higher light emission than all other substrate-luciferase combinations | bioluminescence signal higher than standard D-luciferin imaging conditions [2]: 10 fold | light output relative to the corresponding luciferin (CycLuc2) [3]: greater light output than cells treated with Compound 10's corresponding luciferin
